Read-outs that look alike come from different tables or passages of the source.
Legend:
[1] = Determination of pharmacokinetic parameters in rats after oral gavage; format: in vivo, rat; conditions: female rats; for AUC (area under concentration vs. time curve, 0–24 h): parent triazolone measured in plasma; for concentration at 2 h / concentration at 6 h: rat, plasma; for concentration at 2 h: read-out: Cp (2 h) plasma concentration; for concentration at 6 h: read-out: Cp (6 h) plasma concentration
Description: Intact female rats weighing 200-250 g were used. Groups of three or five rats were used for each dose level of an experimental compound and one rat was used as a vehicle control. Animals were allowed normal access to chow and water throughout the experiment. The test substance was formulated as an aqueous suspension containing hydroxypropyl cellulose, polysorbate 80 and benzyl alcohol adjusted to pH 3.5 with HCl or NaOH at a dose equivalent to (0.127 mmol) and was administered orally by gavage. A blood sample (0.3 mL) was collected from the treated rats at, 2, 4, 6 and 8 h from the orbital sinus and at 24 h by cardiac puncture. A sample of at least 0.3 mL of blood was withdrawn from the untreated animals 3 h after dosing. Potassium oxalate/NaF and lithium heparin were added to the samples which were stored on ice during sampling procedure. The samples were spun in a refrigerated centrifuge at […] as soon as possible and the plasma samples were stored −20° C. immediately after centrifugation and later transferred to a −80° C. freezer until analysis. Aliquots of plasma (0.05 mL) were mixed with 0.35 mL of an internal standard (and 0.05 mL of acetonitrile containing 0.1% formic acid. A set of calibration standards was prepared by mixing 0.05-mL aliquots of plasma from untreated rats with 0.05-mL aliquots of standard solution in acetonitrile containing 0.1% formic acid and 0.35-mL aliquots of the internal standard in acetonitrile containing 0.1% formic acid). Each plasma sample and calibration standard was vortexed thoroughly and then centrifuged (3000×g) at 4° C. for 20 min to precipitate the protein. Each supernatant from centrifugation was transferred into a separate injection vial for LC/MS/MS analysis.

SMILES	melting point [°C]	further results
Cn1c(Cc2ccc(Cl)c(Oc3cc(Cl)cc(C#N)c3)c2F)nn(CO)c1=O [Compound I-1]	145.8 to 149.5	
Cn1c(Cc2ccc(Cl)c(Oc3cc(Cl)cc(C#N)c3)c2F)nn(COC(=O)CCC(=O)O)c1=O [Compound I-2, Succinic acid mono-{3-[4-chloro-3-(3-chloro-5-cyano-phenoxy)-2-fluoro-benzyl]-4-methyl-5-oxo-4,5-dihydro-[1,2,4]triazol-1-ylmethyl}ester]	136.6 to 141.9	
Cn1c(Cc2ccc(Cl)c(Oc3cc(C#N)cc(C#N)c3)c2F)nn(CO)c1=O [Compound I-3]	158.9 to 162.2	
Cn1c(Cc2ccc(Cl)c(Oc3cc(C#N)cc(C#N)c3)c2F)nn(COC(=O)CCC(=O)O)c1=O [Compound I-4, Succinic acid mono-{3-[4-chloro-3-(3,5-dicyano-phenoxy)-2-fluoro-benzyl]-4-methyl-5-oxo-4,5-dihydro-[1,2,4]triazol-1-ylmethyl}ester]	141.6 to 143.3	
Cn1c(Cc2ccc(Cl)c(Oc3cc(C#N)cc(C(F)F)c3)c2F)nn(COC(=O)CCC(=O)O)c1=O [Compound I-5, Succinic acid mono-{3-[4-chloro-3-(3-cyano-5-difluoromethyl-phenoxy)-2-fluoro-benzyl]-4-methyl-5-oxo-4,5-dihydro-[1,2,4]triazol-1-ylmethyl}ester]	150.5 to 151.1	
Cc1ccc(Cc2nn(COC(=O)CCC(=O)O)c(=O)n2C)c(F)c1Oc1cc(C#N)cc(C(F)F)c1 [Compound I-7, Succinic acid mono-{3-[3-(3-cyano-5-difluoromethyl-phenoxy)-2-fluoro-4-methyl-benzyl]-4-methyl-5-oxo-4,5-dihydro-[1,2,4]triazol-1-ylmethyl}ester]	139.2 to 140.5	
Cn1c(Cc2ccc(Br)c(Oc3cc(C#N)cc(C(F)F)c3)c2F)nn(COC(=O)CCC(=O)O)c1=O [Compound I-9, Succinic acid mono-{3-[4-bromo-3-(3-cyano-5-difluoromethyl-phenoxy)-2-fluoro-benzyl]-4-methyl-5-oxo-4,5-dihydro-[1,2,4]triazol-1-ylmethyl}ester]	156.7 to 158	
CCc1ccc(Cc2nn(COC(=O)CCC(=O)O)c(=O)n2C)c(F)c1Oc1cc(C#N)cc(C(F)F)c1 [Compound I-11, succinic acid mono-{3-[3-(3-cyano-5-difluoromethyl-phenoxy)-4-ethyl-2-fluoro-benzyl]-4-methyl-5-oxo-4,5-dihydro-[1,2,4]triazol-1-ylmethyl}ester]	152.2 to 153.5	
Cn1c(Cc2ccc(Cl)c(Oc3cc(C#N)cc(C(F)F)c3)c2F)n[nH]c1=O [parent]		AUC (area under concentration vs. time curve, 0–24 h) ([1]; dose 152 mg/kg (equimolar to I-5 200 mg/kg)): 68800 ng·h/mL; AUC (area under concentration vs. time curve, 0–24 h) ([1]; dose 530 mg/kg (equimolar to I-5 700 mg/kg)): 85400 ng·h/mL; concentration at 2 h ([1]; dose 152 mg/kg): 2740 ng/mL; concentration at 6 h ([1]; dose 152 mg/kg): 5020 ng/mL; concentration at 2 h ([1]; dose 530 mg/kg): 3180 ng/mL; concentration at 6 h ([1]; dose 530 mg/kg): 5970 ng/mL
